Measured values: patent US10836770B2, “Imidazopyridazine compounds useful as modulators of IL-12, IL-23 and/or INF alpha responses” (priority 2016, dated 2020)
pEC50: −log10 of the molar value.

How the values were obtained:
[1] = molecular target: T1, recombinantly expressed His-tagged protein corresponding to amino acids 575-869 of human Tyk2 (Homo sapiens, UniProt P29597); experiment: Probe displacement assay (scintillation proximity, radiolabeled probe); assay type: binding
T1 construct: made in house
T1 sequence (P29597 with tags, fused parts or gaps): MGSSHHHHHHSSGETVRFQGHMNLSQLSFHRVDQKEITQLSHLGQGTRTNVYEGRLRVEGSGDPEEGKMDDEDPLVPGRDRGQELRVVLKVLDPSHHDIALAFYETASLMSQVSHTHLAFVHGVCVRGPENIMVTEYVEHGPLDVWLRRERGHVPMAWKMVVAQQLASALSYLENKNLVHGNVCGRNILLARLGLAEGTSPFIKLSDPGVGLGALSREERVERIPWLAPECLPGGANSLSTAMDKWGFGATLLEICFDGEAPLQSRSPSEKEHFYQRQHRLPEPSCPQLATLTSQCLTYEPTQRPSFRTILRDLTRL
Method: The probe displacement assay is conducted as follows: In a […], test compounds along with recombinantly expressed His-tagged protein corresponding to amino acids 575-869 of human Tyk2 (sequence shown below) at 2.5 nM, 40 nM ((R)—N-(1-(3-(8-methyl-5-(methylamino)-8H-imidazo[4,5-d]thiazolo[5,4-b]pyridin-2-yl)phenyl)ethyl)-2-([^3H]methylsulfonyl)benzamide) (preparation described below) and 80 μg/mL Copper His-Tag scintillation proximity assay beads (Perkin Elmer, Catalog #RPNQ0095) in 50 mM HEPES, pH 7.5, containing 100 μg/mL bovine serum albumin and 5% DMSO were incubated for 30 minutes at room temperature. […] The IC50 value is defined as the concentration of test compound required to inhibit radiolabeled probe binding by 50%.
Protein Sequence of recombinant Hig-tagged Tyk2 (575-869):
The preparation of radiolabeled probe, (R)—N-(1-(3-(8-methyl-5-(methylamino)-8H-imidazo[4,5-d]thiazolo[5,4-b]pyridin-2-yl)phenyl)ethyl)-2-([^3H]methylsulfonyl)benzamide, was performed as described below: […]

[2] = system: IL-23-stimulated Kit225 T cells with STAT-dependent luciferase reporter; experiment: Kit225 T cell assay, IL-23 stimulated STAT-dependent luciferase reporter; assay type: cell-based, human; conditions: Homo sapiens, KIT225, read-out: IL-23 Kit225 Reporter, LE (IC50, uM)
Method: (§1) Kit225 T cells with a stably-integrated STAT-dependent luciferase reporter were plated in RPMI (GIBCO) containing 10% heat-inactivated FBS (GIBCO) and 100 U/mL PenStrep (GIBCO). The cells were then stimulated with either 20 ng/mL human recombinant IL-23 or 200 U/mL human recombinant IFNα (PBL InterferonSource) for 5-6 hours. Luciferase expression was measured using the STEADY-GLO® Luciferase Assay System (PROMEGA®) according to the manufacturer's instructions.

[3] = system: IFNα-stimulated Kit225 T cells with STAT-dependent luciferase reporter; experiment: Kit225 T cell assay, IFNα stimulated STAT-dependent luciferase reporter; assay type: cell-based, human; conditions: Homo sapiens, KIT225, read-out: IFNa Kit225 Reporter, LE (IC50, uM)
Method: as §1

Structure (SMILES)	pEC50 [1]	IC50 [2]	IC50 [3]
CNC(=O)c1nn(C)cc1Nc1cc(NC)c2ncc(C(=O)NC3CC3)n2n1 [Example 1, N-cyclopropyl-6-((1-methyl-3-(methylcarbamoyl)-1H-pyrazol-4-yl)amino)-8-(methylamino)imidazo[1,2-b]pyridazine-3-carboxamide]	7.70	1.32 µM	0.37 µM
CNc1cc(Nc2cn(C)nc2C(=O)Nc2ccccc2)nn2c(C(=O)NC3CC3)cnc12 [Example 2]	8.52	0.94 µM	0.68 µM
CNc1cc(Nc2cn(C)nc2C(=O)Nc2ccccn2)nn2c(C(=O)NC3CC3)cnc12 [Example 4]	8.12	0.35 µM	0.24 µM
CNc1cc(Nc2cn(C)nc2C(=O)Nc2cccnc2)nn2c(C(=O)NC3CC3)cnc12 [Example 5]	8.00	0.34 µM	0.07 µM
CNc1cc(Nc2cn(C)nc2C(=O)Nc2ccncc2)nn2c(C(=O)NC3CC3)cnc12 [Example 6]	8.42	0.07 µM	0.19 µM
CNc1cc(Nc2cn(C)nc2C(=O)Nc2cc(C)c(C)nn2)nn2c(C(=O)NC3CC3)cnc12 [Example 7]	7.70	0.32 µM	0.19 µM
CNc1cc(Nc2cn(C)nc2C(=O)Nc2cncnc2)nn2c(C(=O)NC3CC3)cnc12 [Example 8]	8.12	0.26 µM	0.22 µM
CNc1cc(Nc2cn(C)nc2C(=O)NC(C)C)nn2c(C(=O)NC3CC3)cnc12 [Example 9]	7.52	0.65 µM	0.48 µM
[2H]C([2H])([2H])NC(=O)c1nn(C)cc1Nc1cc(NC)c2ncc(C(=O)NC3CC3)n2n1 [Example 10]	7.52	0.96 µM	0.4 µM
CNc1cc(Nc2cn(C)nc2C(=O)Nc2ccc(OC)nc2)nn2c(C(=O)NC3CC3)cnc12 [Example 11]	7.70	0.52 µM	0.48 µM
CNc1cc(Nc2cn(C)nc2C(=O)Nc2ccc(OC)cc2)nn2c(C(=O)NC3CC3)cnc12 [Example 12]	8.12	0.12 µM	0.11 µM
CNc1cc(Nc2cn(C)nc2C(=O)Nc2ccc3c(c2)OCO3)nn2c(C(=O)NC3CC3)cnc12 [Example 13]	8.11	0.33 µM	0.21 µM
CNC(=O)c1nn(C)cc1Nc1cc(NC)c2ncc(C(=O)N[C@@H]3C[C@@H]3F)n2n1 [Example 14]	8.00	0.28 µM	0.25 µM
CNc1cc(Nc2cn(C)nc2C(=O)Nc2ccccc2)nn2c(C(=O)N[C@@H]3C[C@@H]3F)cnc12 [Example 15]	8.03	0.2 µM	0.11 µM
CNc1cc(Nc2cn(C)nc2C(=O)NC2CC2)nn2c(C(=O)NC3CC3)cnc12 [Example 16]	8.35	0.25 µM	0.14 µM
CNc1cc(Nc2cn(C)nc2C(=O)NCC(C)C)nn2c(C(=O)NC3CC3)cnc12 [Example 17]	7.40	0.16 µM	0.49 µM
CNc1cc(Nc2cn(C)nc2C(=O)NCCCN(C)C)nn2c(C(=O)NC3CC3)cnc12 [Example 18]	7.30	0.47 µM	0.77 µM
CNc1cc(Nc2cn(C)nc2C(=O)NC2CCC2)nn2c(C(=O)NC3CC3)cnc12 [Example 19]	7.00	0.59 µM	12.5 µM

Structure (SMILES)	pEC50 [1]	IC50 [2]	IC50 [3]
CCNC(=O)c1nn(C)cc1Nc1cc(NC)c2ncc(C(=O)NC3CC3)n2n1 [Example 20]	7.52	1.12 µM	0.81 µM
CNc1cc(Nc2cn(C)nc2C(=O)Nc2cccc(F)c2)nn2c(C(=O)NC3CC3)cnc12 [Example 21]	7.30	0.24 µM	0.5 µM
CNc1cc(Nc2cn(C)nc2C(=O)Nc2cccc(C)c2)nn2c(C(=O)NC3CC3)cnc12 [Example 22]	7.70	0.27 µM	0.35 µM
CNc1cc(Nc2cn(C)nc2C(=O)Nc2ccc(F)cc2)nn2c(C(=O)NC3CC3)cnc12 [Example 23]	7.70	0.43 µM	0.81 µM
CNc1cc(Nc2cn(C)nc2C(=O)Nc2ccc3ncsc3c2)nn2c(C(=O)NC3CC3)cnc12 [Example 24]	8.08	0.28 µM	0.34 µM
CNc1cc(Nc2cn(C)nc2C(=O)Nc2ccccc2F)nn2c(C(=O)NC3CC3)cnc12 [Example 25]	8.05	0.13 µM	0.19 µM
CNc1cc(Nc2cn(C)nc2C(=O)Nc2ccc(N(C)C)cc2)nn2c(C(=O)NC3CC3)cnc12 [Example 27]	8.17	0.02 µM	0.16 µM
CCn1cc(Nc2cc(NC)c3ncc(C(=O)NC4CC4)n3n2)c(C(=O)NC)n1 [Example 28, N-cyclopropyl-6-((1-ethyl-3-(methylcarbamoyl)-1H-pyrazol-4-yl)amino)-8-(methylamino)imidazo[1,2-b]pyridazine-3-carboxamide]	7.70	0.21 µM	0.4 µM
CCn1cc(Nc2cc(NC)c3ncc(C(=O)NC4CC4)n3n2)c(C(=O)Nc2cncnc2)n1 [Example 29]	7.00	0.24 µM	1.04 µM
CCn1cc(Nc2cc(NC)c3ncc(C(=O)NC4CC4)n3n2)c(C(=O)Nc2ccccc2)n1 [Example 31]	8.03	0.72 µM	0.3 µM
CNC(=O)c1n[nH]cc1Nc1cc(NC)c2ncc(C(=O)NC3CC3)n2n1 [Example 32, N-cyclopropyl-6-((3-(methylcarbamoyl)-1H-pyrazol-4-yl)amino)-8-(methylamino)imidazo[1,2-b]pyridazine-3-carboxamide]	7.52	0.83 µM	1.65 µM
CNc1cc(Nc2c[nH]nc2C(=O)Nc2cccnc2)nn2c(C(=O)NC3CC3)cnc12 [Example 33]	7.52	1 µM	5.82 µM
CNc1cc(Nc2c[nH]nc2C(=O)Nc2ccc(OC)nc2)nn2c(C(=O)NC3CC3)cnc12 [Example 34]	8.61	0.58 µM	0.81 µM
CNC(=O)c1cn(C)nc1Nc1cc(NC)c2ncc(C(=O)NC3CC3)n2n1 [Example 35, N-cyclopropyl-6-((1-methyl-4-(methylcarbamoyl)-1H-pyrazol-3-yl)amino)-8-(methylamino)imidazo[1,2-b]pyridazine-3-carboxamide]	8.32	1.09 µM	0.47 µM
CNc1cc(Nc2nn(C)cc2C(=O)Nc2ccccc2)nn2c(C(=O)NC3CC3)cnc12 [Example 36]	6.89	3.33 µM	11.9 µM
CNc1cc(Nc2cnn(C)c2C(=O)O)nn2c(C(=O)NC3CC3)cnc12 [Example 37, 4-((3-(cyclopropylcarbamoyl)-8-(methylamino)imidazo[1,2-b]pyridazin-6-yl)amino)-1-methyl-1H-pyrazole-5-carboxylic acid]	7.30	2.34 µM	1.39 µM
CNc1cc(Nc2cnn(C)c2C(=O)Nc2ccccc2)nn2c(C(=O)NC3CC3)cnc12 [Example 38]	7.30	4.46 µM	12.5 µM
CNc1cc(Nc2csnc2C(=O)Nc2ccc(OC)cc2)nn2c(C(=O)NC3CC3)cnc12 [Example 63]	8.22	–	0.29 µM
